In ChEMBL document CHEMBL1212808, “The p110 delta structure: mechanisms for selectivity and potency of new PI(3)K inhibitors” (Nat Chem Biol, 2010):

Legend:
[1] = molecular target: Phosphatidylinositol 4,5-bisphosphate 3-kinase catalytic subunit alpha isoform (Homo sapiens, UniProt P42336); assay: Inhibition of p110alpha
[2] = molecular target: Phosphatidylinositol 4,5-bisphosphate 3-kinase catalytic subunit beta isoform (Homo sapiens, UniProt P42338); assay: Inhibition of p110beta
[3] = molecular target: Phosphatidylinositol 4,5-bisphosphate 3-kinase catalytic subunit gamma isoform (Homo sapiens, UniProt P48736); assay: Inhibition of p110gamma
Chain of Phosphatidylinositol 4,5-bisphosphate 3-kinase catalytic subunit gamma isoform (P48736 whole entry, canonical isoform): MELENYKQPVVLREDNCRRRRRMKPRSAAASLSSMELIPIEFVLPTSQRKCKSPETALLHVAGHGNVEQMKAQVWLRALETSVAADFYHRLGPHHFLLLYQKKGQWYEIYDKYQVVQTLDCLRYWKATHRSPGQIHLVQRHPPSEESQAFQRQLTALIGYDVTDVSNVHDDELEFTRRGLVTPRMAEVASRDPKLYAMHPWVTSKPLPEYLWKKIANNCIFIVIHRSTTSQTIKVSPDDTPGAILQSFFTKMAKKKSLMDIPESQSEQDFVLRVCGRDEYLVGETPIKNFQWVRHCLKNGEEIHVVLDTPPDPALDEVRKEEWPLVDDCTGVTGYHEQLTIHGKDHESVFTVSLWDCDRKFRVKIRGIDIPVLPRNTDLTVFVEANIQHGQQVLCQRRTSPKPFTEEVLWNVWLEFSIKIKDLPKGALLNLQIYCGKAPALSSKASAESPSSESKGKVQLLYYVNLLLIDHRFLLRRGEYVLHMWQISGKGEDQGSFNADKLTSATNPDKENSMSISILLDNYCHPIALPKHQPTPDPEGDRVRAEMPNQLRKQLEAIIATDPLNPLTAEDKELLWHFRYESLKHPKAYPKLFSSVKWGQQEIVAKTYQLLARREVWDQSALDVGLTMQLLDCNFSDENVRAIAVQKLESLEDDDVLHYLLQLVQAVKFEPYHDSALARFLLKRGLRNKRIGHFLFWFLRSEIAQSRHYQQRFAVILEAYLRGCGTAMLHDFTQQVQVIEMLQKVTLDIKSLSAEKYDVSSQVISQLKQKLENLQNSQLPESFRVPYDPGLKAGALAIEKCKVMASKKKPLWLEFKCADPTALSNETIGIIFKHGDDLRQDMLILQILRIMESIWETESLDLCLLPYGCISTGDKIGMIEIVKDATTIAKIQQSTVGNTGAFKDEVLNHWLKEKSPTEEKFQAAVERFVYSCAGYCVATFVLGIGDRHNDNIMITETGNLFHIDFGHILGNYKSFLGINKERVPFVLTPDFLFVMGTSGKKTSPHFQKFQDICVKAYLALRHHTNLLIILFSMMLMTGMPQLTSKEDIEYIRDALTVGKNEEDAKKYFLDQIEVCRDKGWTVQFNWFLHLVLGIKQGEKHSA

Chain of Phosphatidylinositol 4,5-bisphosphate 3-kinase catalytic subunit alpha isoform (P42336 whole entry, canonical isoform): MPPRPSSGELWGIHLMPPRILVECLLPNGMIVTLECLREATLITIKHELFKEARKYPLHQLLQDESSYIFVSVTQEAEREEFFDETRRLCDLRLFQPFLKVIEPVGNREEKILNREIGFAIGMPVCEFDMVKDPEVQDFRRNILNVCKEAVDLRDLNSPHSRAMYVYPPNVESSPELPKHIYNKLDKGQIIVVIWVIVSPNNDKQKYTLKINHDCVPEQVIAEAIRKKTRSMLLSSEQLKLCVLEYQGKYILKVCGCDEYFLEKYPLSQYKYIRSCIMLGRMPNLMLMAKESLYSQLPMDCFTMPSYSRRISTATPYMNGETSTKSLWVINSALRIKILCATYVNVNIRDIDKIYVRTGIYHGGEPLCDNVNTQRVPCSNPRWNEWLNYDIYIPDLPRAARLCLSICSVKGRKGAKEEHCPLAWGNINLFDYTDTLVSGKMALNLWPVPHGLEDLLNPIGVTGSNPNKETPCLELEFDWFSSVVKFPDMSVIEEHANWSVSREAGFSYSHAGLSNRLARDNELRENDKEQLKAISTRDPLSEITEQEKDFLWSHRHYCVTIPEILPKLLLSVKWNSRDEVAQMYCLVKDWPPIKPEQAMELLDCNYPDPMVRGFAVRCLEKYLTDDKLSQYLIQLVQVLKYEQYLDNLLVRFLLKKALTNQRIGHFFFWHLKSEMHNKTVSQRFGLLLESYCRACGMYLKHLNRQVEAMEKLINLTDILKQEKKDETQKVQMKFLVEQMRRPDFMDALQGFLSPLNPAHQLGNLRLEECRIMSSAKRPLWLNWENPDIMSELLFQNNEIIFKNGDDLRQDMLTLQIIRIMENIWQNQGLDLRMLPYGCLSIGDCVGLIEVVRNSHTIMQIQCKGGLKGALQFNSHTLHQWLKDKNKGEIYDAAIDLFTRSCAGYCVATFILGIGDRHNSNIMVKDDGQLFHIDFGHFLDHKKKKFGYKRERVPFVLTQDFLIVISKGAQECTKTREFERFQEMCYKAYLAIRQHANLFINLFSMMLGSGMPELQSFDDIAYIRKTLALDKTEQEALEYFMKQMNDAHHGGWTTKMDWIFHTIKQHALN
Chain of Phosphatidylinositol 4,5-bisphosphate 3-kinase catalytic subunit beta isoform (P42338 whole entry, canonical isoform): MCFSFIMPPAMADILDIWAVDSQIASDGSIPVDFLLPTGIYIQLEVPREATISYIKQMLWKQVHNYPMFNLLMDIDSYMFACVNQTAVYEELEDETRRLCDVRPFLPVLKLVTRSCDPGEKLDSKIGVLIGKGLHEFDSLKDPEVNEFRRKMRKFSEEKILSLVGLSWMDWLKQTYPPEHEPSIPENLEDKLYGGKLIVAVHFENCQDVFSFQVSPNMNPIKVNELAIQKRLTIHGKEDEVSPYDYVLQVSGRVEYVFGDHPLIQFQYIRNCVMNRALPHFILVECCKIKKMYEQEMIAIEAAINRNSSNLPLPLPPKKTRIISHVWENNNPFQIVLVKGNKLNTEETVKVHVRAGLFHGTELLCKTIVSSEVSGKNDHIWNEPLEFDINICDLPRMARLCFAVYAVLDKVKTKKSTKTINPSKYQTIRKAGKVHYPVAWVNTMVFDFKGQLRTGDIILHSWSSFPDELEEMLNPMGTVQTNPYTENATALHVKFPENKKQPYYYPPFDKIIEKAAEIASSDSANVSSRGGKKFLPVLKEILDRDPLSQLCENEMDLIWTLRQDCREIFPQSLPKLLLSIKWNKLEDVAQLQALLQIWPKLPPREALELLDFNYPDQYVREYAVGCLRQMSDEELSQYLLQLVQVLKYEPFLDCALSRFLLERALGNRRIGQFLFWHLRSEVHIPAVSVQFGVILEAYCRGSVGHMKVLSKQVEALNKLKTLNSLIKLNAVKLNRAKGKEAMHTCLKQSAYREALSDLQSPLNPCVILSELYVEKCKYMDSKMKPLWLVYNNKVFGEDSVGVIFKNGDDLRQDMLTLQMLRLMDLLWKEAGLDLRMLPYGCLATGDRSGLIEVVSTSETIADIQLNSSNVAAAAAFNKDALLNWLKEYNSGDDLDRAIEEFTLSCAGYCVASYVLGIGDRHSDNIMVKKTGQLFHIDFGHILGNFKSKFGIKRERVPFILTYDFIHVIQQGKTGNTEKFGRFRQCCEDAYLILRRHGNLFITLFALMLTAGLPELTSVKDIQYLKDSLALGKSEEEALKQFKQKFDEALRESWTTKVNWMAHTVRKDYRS

IC50 [1] [nM] | IC50 [2] [nM] | IC50 [3] [nM] | SMILES
788 | 23 | 185 | CC(=O)Nc1nc2ccc(-c3nn(Cc4cc5ccccc5nc4N4CCN(C)CC4)c4ncnc(N)c34)cc2s1
3440 | 4230 | 20000 | COc1ccccc1-n1c(SCC(=O)Nc2ccc3nccnc3c2)nc2c(c1=O)CCCC2
34 | 316 | 69 | CC(C)n1nc(C#Cc2cccc(O)c2)c2c(N)ncnc21
137 | 9 | 4 | CN1CCN(c2nc3ccccc3cc2Cn2nc(-c3ccc4nc(N)sc4c3)c3c(N)ncnc32)CC1
53 | 664 | 113 | CC(C)n1nc(C#Cc2cccnc2)c2c(N)ncnc21
400 | 10000 | 10000 | COc1cc(Nc2nc3ccccc3nc2NS(=O)(=O)c2ccc(F)cc2)cc(OC)c1
